One data set relates to Jurkat. Kind of data set: Inhibition of IL2 production in Jurkat E6-1 T cells by ELISA. The settings on record: Homo sapiens.
Data set [1] in a line: Loss of metabolic stability in Sprague-Dawley rat hepatocytes after 1 hr at 1 uM. The settings on record: read-out: Activity. It counts as ADME, cell-based, Hepatocyte.
Data set [2] in a line: Aqueous solubility at pH 7.4. It counts as physicochemical.
Data set [3] concerns the target Tyrosine-protein kinase Lck (Homo sapiens, UniProt P06239).
Description: Inhibition of human recombinant Lck by ProFlour assay
For data set [4], the target named is Proto-oncogene tyrosine-protein kinase Src (Homo sapiens, UniProt P12931). Kind of data set: Inhibition of human recombinant Src by ProFlour assay.
Chain of Proto-oncogene tyrosine-protein kinase Src (P12931 2-536 limits assumed): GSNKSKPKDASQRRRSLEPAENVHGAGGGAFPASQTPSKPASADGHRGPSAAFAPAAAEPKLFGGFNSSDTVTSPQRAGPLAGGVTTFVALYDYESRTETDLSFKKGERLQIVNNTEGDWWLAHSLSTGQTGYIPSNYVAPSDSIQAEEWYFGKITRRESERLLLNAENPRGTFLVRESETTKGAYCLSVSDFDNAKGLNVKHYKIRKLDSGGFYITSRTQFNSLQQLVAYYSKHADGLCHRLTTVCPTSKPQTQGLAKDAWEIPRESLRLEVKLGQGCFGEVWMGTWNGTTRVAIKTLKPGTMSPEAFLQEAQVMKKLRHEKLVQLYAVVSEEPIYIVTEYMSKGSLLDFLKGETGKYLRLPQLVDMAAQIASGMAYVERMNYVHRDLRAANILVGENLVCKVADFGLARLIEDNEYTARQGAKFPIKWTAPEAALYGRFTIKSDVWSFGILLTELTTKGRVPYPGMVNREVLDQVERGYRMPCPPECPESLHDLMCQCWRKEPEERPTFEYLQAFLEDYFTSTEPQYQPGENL

pIC50: −log10 of the molar value. ≈ marks a conversion by molar mass, not a printed value.

Chain of Tyrosine-protein kinase Lck (P06239 whole entry): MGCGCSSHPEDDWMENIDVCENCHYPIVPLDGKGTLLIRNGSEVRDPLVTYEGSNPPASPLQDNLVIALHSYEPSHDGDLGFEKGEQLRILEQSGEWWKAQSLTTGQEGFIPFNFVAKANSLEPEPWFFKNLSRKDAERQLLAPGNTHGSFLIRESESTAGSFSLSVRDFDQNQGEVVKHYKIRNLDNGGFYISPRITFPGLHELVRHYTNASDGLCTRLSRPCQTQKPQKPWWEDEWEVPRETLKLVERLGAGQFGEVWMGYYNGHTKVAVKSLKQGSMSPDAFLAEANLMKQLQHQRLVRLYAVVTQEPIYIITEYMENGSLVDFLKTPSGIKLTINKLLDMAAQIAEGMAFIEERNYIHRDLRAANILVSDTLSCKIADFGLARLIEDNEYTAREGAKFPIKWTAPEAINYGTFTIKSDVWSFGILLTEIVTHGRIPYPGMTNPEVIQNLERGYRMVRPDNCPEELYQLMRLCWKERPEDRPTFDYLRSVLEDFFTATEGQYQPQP

By pIC50 is commonly meant −log10 of the IC50, conventionally taken in molar units. In general, solubility refers to how much of the substance goes into solution per volume. Read a high solubility as much dissolved substance. The compound `Cc1ccc(O)cc1Nc1cc(NCCN2CCN(C)CC2)nc(-n2cnc3ccccc32)n1` gave a pIC50 with Jurkat of 5.64. Moreover, in data set [1], the metabolised at 1 h, 1 µM came out at 39%. Besides, the solubility in data set [2] is 54 µg/mL (≈ 118 µM).

In turn, `COc1ccc(C)c(Nc2nccc(-n3cnc4ccccc43)n2)c1` gave a pIC50 in data set [3] of under 5.00.

For the compound `Cc1ccc(O)cc1Nc1cc(OCCN2CCOCC2)nc(-n2cnc3ccccc32)n1`, the pIC50 in the data set with Jurkat is 7.27. Besides, in data set [1], the metabolised at 1 h, 1 µM came to 48%. For the same compound, the concentration in solution in data set [2] (solubility) was 3 µg/mL (≈ 6.72 µM).

For the compound `Cc1ccc(O)cc1Nc1cc(NCCCN(C)C)nc(-n2cnc3ccccc32)n1`, the pIC50 with Jurkat is 5.66. For the same compound, in data set [1], the metabolised at 1 h, 1 µM amounted to 48%. Moreover, in data set [2], the solubility stood at 55 µg/mL (≈ 132 µM).

Consider `Cc1ccc(O)cc1Nc1cc(CC2CCN(C)CC2)nc(-n2cnc3ccccc32)n1`, for which the pIC50 in the data set on Jurkat was 6.79. Moreover, in data set [2], the solubility was 40 µg/mL (≈ 93.3 µM).

In turn, `Cc1ccc(O)cc1Nc1cc(OCCN2CCN(C)CC2)nc(-n2cnc3ccccc32)n1` had a pIC50 in the data set on Jurkat of 6.40. Besides, the metabolised at 1 h, 1 µM in data set [1] worked out at 35%. Further, the concentration in solution in data set [2] (solubility) was 70 µg/mL (≈ 152 µM).

As for `CCN(CC)CCNc1cc(Nc2cc(O)ccc2C)nc(-n2cnc3ccccc32)n1`, the negative-log IC50 (pIC50) in the data set with Jurkat is 6.26; in data set [4] it was 6.79. Moreover, the metabolised at 1 h, 1 µM in data set [1] is 45%. Further, in data set [2], the concentration in solution (solubility) came to 127 µg/mL (≈ 294 µM).

In the data set with Jurkat, `COc1ccc(C)c(Nc2cc(OCCN3CCOCC3)nc(-n3cnc4ccccc43)n2)c1` gave a negative logarithm of the IC50 (pIC50) of 5.90. In addition, in data set [2], the solubility was 27 µg/mL (≈ 58.6 µM).

Compound `Cc1ccc(O)cc1Nc1cc(N2CCN(C)CC2)nc(-n2cnc3ccccc32)n1` gave a solubility in data set [2] of at most 0.1 µg/mL.

The compound `Cc1ccc(O)cc1Nc1cc(-n2cnc3ccccc32)ncn1` had a pIC50 in data set [3] of under 5.00.

In the case of `Oc1cccc(Nc2nccc(-n3cnc4ccccc43)n2)c1`, the pIC50 in data set [3] was under 5.00.

Compound `Cc1ccc(F)cc1Nc1ccnc(-n2cnc3ccccc32)n1` showed a pIC50 in data set [3] of under 5.00.
